For nine molecules, Activity results are on record in ChEMBL document CHEMBL3046837, “Synthesis of some novel amino and thiotetrazole purine derivatives and investigation of their antimicrobial activity and DNA interactions” (Med Chem Res, 2013).

SMILES strings stand for the structures. Activity calls are given as the source filed them. No cut-off for these calls is given here.

The test system of one test is Enterococcus faecalis. As to the kind of experiment: Antibacterial activity against Enterococcus faecalis […] after 24 hr by disk diffusion method. The class given is functional, organism-based. On the technique in general: Agar diffusion results depend on both activity and mobility in agar.
Test [1] relates to Escherichia coli. The test can be described thus: Covalent binding to Escherichia coli pBR322 DNA adenine-adenine site assessed as inhibition of Hind3-mediated restriction digestion at 1250 uM by restriction endonuclease analysis.
The test system of test [2] is Escherichia coli. The test can be described thus: Binding affinity to Escherichia coli pBR322 DNA assessed as appearance of DNA fragments at high concentration after 24 hr by agarose gel electrophoresis.
A further test relates to Staphylococcus aureus. As to the kind of experiment: Antibacterial activity against Staphylococcus aureus ATCC 25923 after 24 hr by disk diffusion method. The class given is functional, organism-based.
The subject of test [3] is Escherichia coli. The test can be described thus: Antibacterial activity against Escherichia coli ATCC 25922 after 24 hr by disk diffusion method. It is filed as functional, organism-based.
A further test concerns Candida albicans. As to the kind of experiment: Antifungal activity against Candida albicans ATCC 10231 after 72 hr by disk diffusion method. It is filed as functional, organism-based.
In another test the test system is Bacillus cereus. The test can be described thus: Antibacterial activity against Bacillus cereus NRLL B-3008 after 24 hr by disk diffusion method. It is filed as functional, organism-based.
The subject of another test is Candida tropicalis. As to the kind of experiment: Antifungal activity against Candida tropicalis ATCC 13803 after 72 hr by disk diffusion method. It is filed as functional, organism-based.
Test [4] concerns Escherichia coli. As to the kind of experiment: Covalent binding to Escherichia coli pBR322 DNA Guanine-guanine site assessed as inhibition of BamH1-mediated restriction digestion at 1250 uM by restriction endonuclease analysis.
Test [5] relates to Escherichia coli. As to the kind of experiment: Covalent binding to Escherichia coli pBR322 DNA assessed as disappearance of form 2 DNA at high concentration after 24 hr by agarose gel electrophoresis.
A further test concerns Proteus vulgaris. The test can be described thus: Antibacterial activity against Proteus vulgaris ATCC 8427 after 24 hr by disk diffusion method. It is filed as functional, organism-based.
The next test relates to Bacillus subtilis. As to the kind of experiment: Antibacterial activity against Bacillus subtilis […] after 24 hr by disk diffusion method. It is filed as functional, organism-based.
The subject of test [6] is Escherichia coli. The test can be described thus: Antibacterial activity against Escherichia coli ATCC 35218 after 24 hr by disk diffusion method. It is filed as functional, organism-based.
In a further test the test system is Pseudomonas aeruginosa. The test can be described thus: Antibacterial activity against Pseudomonas aeruginosa ATCC 27853 after 24 hr by disk diffusion method. It is filed as functional, organism-based.
For test [7], the system named is Escherichia coli. As to the kind of experiment: Covalent binding to Escherichia coli pBR322 DNA assessed as increase in intensity of form 1 DNA at low concentration after 24 hr by agarose gel electrophoresis.
Test [8] deals with Escherichia coli. The test can be described thus: Covalent binding to Escherichia coli pBR322 DNA assessed as decrease in intensity of form 2 DNA at low concentration after 24 hr by agarose gel electrophoresis.
For test [9], the system named is Escherichia coli. As to the kind of experiment: Binding affinity to Escherichia coli pBR322 DNA assessed as appearance of DNA fragments at low concentration after 24 hr by agarose gel electrophoresis.
Test [10] relates to Escherichia coli. As to the kind of experiment: Covalent binding to Escherichia coli pBR322 DNA assessed as increase in mobility of form 1 DNA at high concentration after 24 hr by agarose gel electrophoresis.
Test [11] has as its system Escherichia coli. As to the kind of experiment: Covalent binding to Escherichia coli pBR322 DNA assessed as disappearance of form 2 DNA at low concentration after 24 hr by agarose gel electrophoresis.
For test [12], the system named is Escherichia coli. The test can be described thus: Binding affinity to Escherichia coli pBR322 DNA assessed as decrease in mobility of form 1 DNA at low concentration after 24 hr by agarose gel electrophoresis.
Test [13] deals with Escherichia coli. As to the kind of experiment: Covalent binding to Escherichia coli pBR322 DNA assessed as appearance of small DNA fragments at high concentration after 24 hr by agarose gel electrophoresis.
Test [14] deals with Escherichia coli. As to the kind of experiment: Binding affinity to Escherichia coli pBR322 DNA assessed as change in mobility of form 1 DNA at low concentration after 24 hr by agarose gel electrophoresis.
In test [15] the test system is Escherichia coli. The test can be described thus: Covalent binding to Escherichia coli pBR322 DNA assessed as increase in intensity of form 1 DNA at high concentration after 24 hr by agarose gel electrophoresis.
For test [16], the system named is Escherichia coli. As to the kind of experiment: Binding affinity to Escherichia coli pBR322 DNA assessed as change in mobility of form 2 DNA at low concentration after 24 hr by agarose gel electrophoresis.

In the case of `CCOC(=O)Cn1cnc2c(Sc3nnnn3C)ncnc21`, the result with Enterococcus faecalis, in the test on Staphylococcus aureus, with Escherichia coli [3], in the test with Candida albicans, in the test with Bacillus cereus and in the test with Candida tropicalis was inactive. In addition, the outcome in the test with Proteus vulgaris, in the test on Bacillus subtilis, in the test on Escherichia coli [6] and with Pseudomonas aeruginosa was inactive. In addition, the outcome in the test with Escherichia coli [1], in the test on Escherichia coli [2], in the test with Escherichia coli [4] and in the test on Escherichia coli [5] was Active.

For `Cn1nnnc1Sc1ncnc2c1ncn2CC1CCCCC1`, the result with Enterococcus faecalis, with Staphylococcus aureus, in the test on Escherichia coli [3], in the test on Candida albicans, in the test with Bacillus cereus and in the test on Candida tropicalis was inactive. Further, the outcome with Proteus vulgaris, in the test with Bacillus subtilis, in the test on Escherichia coli [6] and in the test with Pseudomonas aeruginosa was inactive. The outcome in the test on Escherichia coli [1], with Escherichia coli [7], with Escherichia coli [4], in the test on Escherichia coli [8] and with Escherichia coli [9] was Active.

With `Cn1nnnc1Sc1ncnc2c1ncn2C`, the result in the test on Enterococcus faecalis, in the test on Staphylococcus aureus, with Escherichia coli [3], in the test with Candida albicans, in the test with Bacillus cereus and in the test on Candida tropicalis was inactive. Also, the result in the test with Proteus vulgaris, in the test on Bacillus subtilis, in the test on Escherichia coli [6] and with Pseudomonas aeruginosa was inactive. Also, the outcome with Escherichia coli [1], with Escherichia coli [10] and in the test on Escherichia coli [4] was Active.

As for `CCCCCCn1cnc2c(Sc3nnnn3C)ncnc21`, the result in the test on Enterococcus faecalis, with Staphylococcus aureus, in the test on Escherichia coli [3], in the test with Candida albicans, in the test with Bacillus cereus and in the test on Candida tropicalis was inactive. The result in the test with Proteus vulgaris, with Bacillus subtilis, in the test with Escherichia coli [6] and in the test on Pseudomonas aeruginosa was inactive. For the same molecule, the outcome with Escherichia coli [1], in the test with Escherichia coli [11], in the test with Escherichia coli [4] and with Escherichia coli [12] was Active.

Regarding `CCCn1cnc2c(Nc3nnn[nH]3)ncnc21`, the outcome with Enterococcus faecalis, in the test with Staphylococcus aureus, in the test with Escherichia coli [3], with Candida albicans, in the test with Bacillus cereus and with Candida tropicalis was inactive. Also, the result in the test with Escherichia coli [4], in the test with Proteus vulgaris, in the test on Bacillus subtilis, in the test on Escherichia coli [6] and in the test with Pseudomonas aeruginosa was inactive. The result in the test on Escherichia coli [1], with Escherichia coli [9] and in the test with Escherichia coli [12] was Active.

For `Cn1nnnc1Sc1ncnc2c1ncn2Cc1ccccc1`, the result in the test on Enterococcus faecalis, in the test with Staphylococcus aureus, in the test with Escherichia coli [3], in the test on Candida albicans, in the test with Bacillus cereus and in the test with Candida tropicalis was inactive. The outcome in the test on Proteus vulgaris, with Bacillus subtilis, in the test with Escherichia coli [6] and in the test with Pseudomonas aeruginosa was inactive. Besides, the result with Escherichia coli [1], with Escherichia coli [2], in the test on Escherichia coli [4] and in the test on Escherichia coli [5] was Active.

Consider `Cn1cnc2c(Nc3nnn[nH]3)ncnc21`, for which the result in the test with Escherichia coli [13], in the test with Escherichia coli [1] and in the test with Escherichia coli [15] was Active. For the same molecule, the outcome in the test with Enterococcus faecalis, with Staphylococcus aureus, in the test on Escherichia coli [14], with Escherichia coli [3], in the test on Candida albicans and with Bacillus cereus was inactive. Also, the result with Candida tropicalis, with Escherichia coli [4], in the test on Proteus vulgaris, with Bacillus subtilis, with Escherichia coli [6] and with Escherichia coli [16] was inactive. In addition, in the test on Pseudomonas aeruginosa, the outcome was inactive.

On to `Cn1nnnc1Sc1ncnc2c1ncn2CC1CCC1`, for which the outcome in the test with Enterococcus faecalis, in the test on Staphylococcus aureus, in the test with Escherichia coli [3], in the test with Candida albicans, with Bacillus cereus and in the test with Candida tropicalis was inactive. Further, the outcome in the test on Proteus vulgaris, with Bacillus subtilis, in the test on Escherichia coli [6] and in the test with Pseudomonas aeruginosa was inactive. Also, the outcome in the test with Escherichia coli [1], in the test on Escherichia coli [2], with Escherichia coli [4] and in the test with Escherichia coli [5] was Active.

On to `CCn1cnc2c(Sc3nnnn3C)ncnc21`, for which the result in the test with Enterococcus faecalis, in the test on Staphylococcus aureus, with Escherichia coli [3], with Candida albicans, in the test on Bacillus cereus and in the test on Candida tropicalis was inactive. Besides, the outcome with Proteus vulgaris, in the test with Bacillus subtilis, with Escherichia coli [6] and in the test with Pseudomonas aeruginosa was inactive. For the same molecule, the outcome with Escherichia coli [1], with Escherichia coli [10], with Escherichia coli [4] and with Escherichia coli [5] was Active.
